For experiment [1], the target named is T1, Melatonin receptor type 1A (Homo sapiens, UniProt P48039). Put plainly: Binding affinity for human recombinant Melatonin receptor type 1 expressed in NIH3T3 cells. The class given is cell-based.
The target in experiment [2] is T2, Melatonin receptor type 1B (Homo sapiens, UniProt P49286).
T2 sequence (P49286 whole entry): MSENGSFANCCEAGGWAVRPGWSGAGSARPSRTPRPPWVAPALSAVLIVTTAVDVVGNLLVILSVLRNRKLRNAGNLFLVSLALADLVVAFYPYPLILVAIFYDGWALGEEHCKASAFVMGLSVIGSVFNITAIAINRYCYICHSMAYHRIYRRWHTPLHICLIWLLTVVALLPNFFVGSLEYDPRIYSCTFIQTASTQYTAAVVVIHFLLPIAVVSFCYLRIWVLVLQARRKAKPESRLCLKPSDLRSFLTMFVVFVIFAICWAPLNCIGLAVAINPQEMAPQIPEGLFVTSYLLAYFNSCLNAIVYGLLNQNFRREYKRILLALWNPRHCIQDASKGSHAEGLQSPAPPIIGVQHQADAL
The experiment in a line: Binding affinity for human recombinant Melatonin receptor type 2 expressed in NIH3T3 cells. The class given is cell-based.

The target of experiment [3] is T1, Melatonin receptor type 1A.
The target in experiment [4] is T3, Melatonin receptor type 1B (Homo sapiens) (UniProt P49286).
T3 sequence (whole entry): T2 sequence (P49286 whole entry)

Results on 13 compounds are retold here after ChEMBL document CHEMBL1138675 (J Med Chem, 2004).

T1 sequence (P48039 whole entry): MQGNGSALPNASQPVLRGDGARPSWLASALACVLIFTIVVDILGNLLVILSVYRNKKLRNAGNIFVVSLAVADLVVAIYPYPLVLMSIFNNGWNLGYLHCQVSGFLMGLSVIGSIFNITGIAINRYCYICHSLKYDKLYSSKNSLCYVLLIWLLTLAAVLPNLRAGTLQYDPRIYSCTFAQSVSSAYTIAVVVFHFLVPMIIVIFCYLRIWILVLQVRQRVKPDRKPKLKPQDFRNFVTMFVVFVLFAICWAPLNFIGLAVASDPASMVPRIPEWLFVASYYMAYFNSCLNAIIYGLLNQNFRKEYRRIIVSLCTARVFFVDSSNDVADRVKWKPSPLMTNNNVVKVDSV

Consider `CCCC(=O)NCC1Cc2ccccc2Cc2ccc(OC)cc21` (configuration not stated), for which the results for the Ki in experiment [1] and in experiment [2] were 1.29 nM and 0.245 nM, respectively. For the same compound, the IAr in experiment [3] is -0.09; in experiment [4], -0.17.
With `CC(=O)NCCC1Cc2ccccc2Cc2ccccc21` (configuration not stated), the Ki in experiment [1] is 389 nM; in experiment [2] it was 89.1 nM. For the same compound, the IAr in experiment [3] is 0.21; in experiment [4], 0.69.
The like results for `CC(=O)NCC1Cc2ccccc2Cc2ccccc21` (configuration not stated) were, in that order, 240 nM, 30.2 nM, 0.03 and -0.32.
In experiment [3], `COc1ccc2[nH]cc(CCNC(C)=O)c2c1` yielded an IAr of 1.
For the compound `CCC(=O)NCC1Cc2ccccc2Cc2ccc(OC)cc21` (configuration not stated), the Ki in experiment [1] is 1.35 nM; in experiment [2] it was 0.162 nM. The IAr in experiment [3] is -0.1; in experiment [4] it was -0.15.
Regarding `COc1ccc2c(c1)C(CNC(C)=O)Cc1ccccc1C2=O` (configuration not stated), the Ki in experiment [1] is 3.02 nM; in experiment [2] it was 0.891 nM. In addition, the IAr in experiment [3] was -0.14; in experiment [4] it was -0.08.
Regarding `CCC(=O)NCCN1c2ccccc2C=Cc2ccc(OC)cc21`, the Ki in experiment [1] is 57.5 nM; in experiment [2] it was 38 nM. The IAr was -0.04 in experiment [3] and -0.1 in experiment [4].
As to `CC(=O)NCC(=O)N1c2ccccc2C=Cc2ccccc21`, the values for the Ki in experiment [1] and in experiment [2] were 20400 nM and 11000 nM, respectively.
For the compound `COc1ccc2c(c1)C(CNC(C)=O)Cc1ccccc1C2` (configuration not stated), the inhibitory constant (Ki) is 6.17 nM in experiment [1] and 0.661 nM in experiment [2]. Also, the IAr is -0.18 in experiment [3] and -0.55 in experiment [4].
With `CC(=O)NCC1=Cc2ccccc2Cc2ccccc21`, the Ki in experiment [1] is 550 nM; in experiment [2], 85.1 nM. For the same compound, the values for the IAr in experiment [3] and in experiment [4] were 0.02 and -0.09, respectively.
The like results for `COc1ccc2c(c1)C(CCNC(C)=O)Cc1ccccc1C2` (configuration not stated) were, in that order, 162 nM, 39.8 nM, -0.07 and 0.01.
Regarding `CCC(=O)NCCN1c2ccccc2CCc2ccccc21`, the Ki was 550 nM in experiment [1] and 200 nM in experiment [2]. Moreover, the IAr in experiment [3] turned out to be 0.03; in experiment [4], 0.13.
On the same counts, the results for `CC(=O)NCCN1c2ccccc2C=Cc2ccccc21` are 112 nM, 126 nM, 0.01 and -0.03.
